Results reported in ChEMBL document CHEMBL1201862, “PubChem BioAssay data set” (2004).
Calls of active or inactive are those of the source.

Columns and labels:
[1] = cytotoxicity in HEK-293T cells, dose response, cytotoxicity control for TCR NF-kB inhibitor project, luminescence, T-cell screen hits (AID 489026); assay type: functional, cell-based;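 further: cells exposed to compound about 14 hours before the viability readout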
[2] = biological target: Galanin receptor type 3 (Homo sapiens, UniProt O60755); test: Fluorescence-based cell-based primary high throughput dose response assay to identify antagonists of the Galanin Receptor 3 (GalR3).; assay type: functional
[3] = cells; assay type: functional, cell-based; conditions: HEK-CNG
[4] = test system: H9c2; test: cells; assay type: functional, cell-based; conditions: Rattus norvegicus, H9c2, Myocardium;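 further: confirmatory concentration-response retest of ultra-high-throughput screening hits for modulation of myocardial damage; cell death induced by hydrogen peroxide oxidative stress; compound pretreatment for 60 min then peroxide exposure for 2 h; potency is for protecting the cells against peroxide damage rather than for killing them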
[5] = biological target: DNA repair protein RAD52 homolog (Homo sapiens, UniProt P43351); assay type: functional, biochemical
[6] = Luminescence-based dose response cell-based high throughput screening assay for cytotoxic compounds using the IEC-6 intestinal epithelial cell line. [Related pubchem assays: 1858 (Summary AID.), 1825 (Counterscreen.), 1907 (Confirmation screen.)]; assay type: functional
[7] = Luminescence Cell-Based Dose Retest to Confirm Inhibitors of Cancer Stem Cells. [Related pubchem assays (depositor defined):AID2717, AID2721]; assay type: functional; conditions: Homo sapiens
[8] = test system: INS1; test: beta cell apoptosis inhibitors, cytokine rescue, dose response, luminescence, retest (AID 449756); assay type: functional, cell-based; conditions: Rattus norvegicus;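 further: cell death triggered by IL-1 beta plus TNF-alpha plus IFN-gamma mixture; protective hits raise ATP signal compared with cytokine alone wells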
[9] = miR-122 activators in hepatoma reporter cells, dose response, cell-based, Huh7 psiCHECK-miR122, Renilla luciferase, cherry-picked (AID 651956); assay type: functional;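 further: huh7 hepatoma cells stably carrying a psiCHECK-2 miR-122 sensor plasmid; renilla luciferase signal reporting endogenous miR-122 activity after 48 h compound exposure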
[10] = HEK293T cytotoxicity, dose response, cytotoxicity control for miR-122 modulator project, cell-based, inhibitor set, cherry-pick, set 2 (AID 720697); assay type: functional
[11] = biological target: Broad substrate specificity ATP-binding cassette transporter ABCG2 (Homo sapiens, UniProt Q9UNQ0); test: ABCG2 efflux pump inhibitors, dose response, Ig-MXP3 cells, flow cytometry (AID 1690); assay type: functional
[12] = biological target: Matrix metalloproteinase-14 (Homo sapiens, UniProt P50281); test: Dose Response confirmation of uHTS hits for a small molecule inhibitors of MT1-MMP activation in a fluorescence assay set 1.; assay type: functional
[13] = HepG2 cell cytotoxicity, dose response, cytotoxicity control, ATP luminescence, cherry-pick, activator set 2 (AID 1053143); assay type: functional, cell-based
[14] = Counterscreen for […] of the human trace amine associated receptor 1 (TAAR1): Fluorescence-based cell-based high throughput dose response assay to identify nonselective Ga16 agonists.; assay type: functional
[15] = biological target: T1, Trace amine-associated receptor 1 (Homo sapiens, UniProt Q96RJ0); test: Fluorescence-based cell-based high throughput dose response assay to identify antagonists of the human trace amine associated receptor 1 (TAAR1).; assay type: functional
T1 sequence (Q96RJ0 whole entry): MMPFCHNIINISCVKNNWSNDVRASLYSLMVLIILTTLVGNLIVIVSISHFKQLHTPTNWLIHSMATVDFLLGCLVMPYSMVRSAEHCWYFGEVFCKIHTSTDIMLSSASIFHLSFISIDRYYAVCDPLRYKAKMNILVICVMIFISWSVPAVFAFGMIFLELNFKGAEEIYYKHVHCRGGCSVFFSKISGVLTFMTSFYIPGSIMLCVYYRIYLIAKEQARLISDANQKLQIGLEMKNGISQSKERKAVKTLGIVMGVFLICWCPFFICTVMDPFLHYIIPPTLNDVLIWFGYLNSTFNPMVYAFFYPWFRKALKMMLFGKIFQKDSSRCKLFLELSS

[16] = Counterscreen for antagonists of the human trace amine associated receptor 1 (hTAAR1): Fluorescence-based cell-based high throughput dose response assay to identify nonselective Ga16 antagonists.; assay type: functional
[17] = biological target: T1, Trace amine-associated receptor 1; test: Counterscreen for antagonists of the human trace amine associated receptor 1 (hTAAR1): Fluorescence-based cell-based high throughput dose response assay to identify TAAR1 Agonists.; assay type: functional
[18] = biological target: T2, Carboxy-terminal domain RNA polymerase II polypeptide A small phosphatase 1 (Homo sapiens, UniProt Q9GZU7); test: inhibitors of CTDSP1, concentration-response testing, biochemical assay, absorbance-based, actives from ultra-high-throughput screening (AID 540297); assay type: functional
T2 sequence (Q9GZU7 whole entry): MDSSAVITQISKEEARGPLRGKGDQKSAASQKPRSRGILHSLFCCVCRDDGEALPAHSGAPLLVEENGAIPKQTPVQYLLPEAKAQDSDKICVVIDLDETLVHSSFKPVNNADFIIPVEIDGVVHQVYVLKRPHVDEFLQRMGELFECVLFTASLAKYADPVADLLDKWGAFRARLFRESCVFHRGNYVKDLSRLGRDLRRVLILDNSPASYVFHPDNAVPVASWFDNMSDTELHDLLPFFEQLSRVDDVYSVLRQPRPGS

[19] = biological target: Tyrosine-protein phosphatase non-receptor type 11 (Homo sapiens, UniProt Q06124); test: SHP2 phosphatase inhibition, dose response, selectivity assay for STEP inhibitor project, biochemical (AID 602367); assay type: functional; conditions: read-out: IC50_Mean
[20] = biological target: Tyrosine-protein phosphatase non-receptor type 5 (Homo sapiens, UniProt P54829); test: STEP phosphatase inhibitors, confirmation, biochemical, fluorescence intensity, uHTS hits (AID 602372); assay type: functional; conditions: read-out: IC50_Mean
[21] = biological target: Dual specificity protein phosphatase 3 (Homo sapiens, UniProt P51452); test: VHR phosphatase inhibition, dose response, selectivity assay for STEP inhibitor project, biochemical (AID 602374); assay type: functional; conditions: read-out: IC50_Mean
[22] = biological target: T3, Tyrosine-protein phosphatase non-receptor type 22 (Homo sapiens, UniProt Q9Y2R2); test: PTPN22 phosphatase inhibition, dose response, selectivity assay for STEP inhibitor project, biochemical (AID 624241); assay type: functional
T3 sequence (Q9Y2R2 whole entry): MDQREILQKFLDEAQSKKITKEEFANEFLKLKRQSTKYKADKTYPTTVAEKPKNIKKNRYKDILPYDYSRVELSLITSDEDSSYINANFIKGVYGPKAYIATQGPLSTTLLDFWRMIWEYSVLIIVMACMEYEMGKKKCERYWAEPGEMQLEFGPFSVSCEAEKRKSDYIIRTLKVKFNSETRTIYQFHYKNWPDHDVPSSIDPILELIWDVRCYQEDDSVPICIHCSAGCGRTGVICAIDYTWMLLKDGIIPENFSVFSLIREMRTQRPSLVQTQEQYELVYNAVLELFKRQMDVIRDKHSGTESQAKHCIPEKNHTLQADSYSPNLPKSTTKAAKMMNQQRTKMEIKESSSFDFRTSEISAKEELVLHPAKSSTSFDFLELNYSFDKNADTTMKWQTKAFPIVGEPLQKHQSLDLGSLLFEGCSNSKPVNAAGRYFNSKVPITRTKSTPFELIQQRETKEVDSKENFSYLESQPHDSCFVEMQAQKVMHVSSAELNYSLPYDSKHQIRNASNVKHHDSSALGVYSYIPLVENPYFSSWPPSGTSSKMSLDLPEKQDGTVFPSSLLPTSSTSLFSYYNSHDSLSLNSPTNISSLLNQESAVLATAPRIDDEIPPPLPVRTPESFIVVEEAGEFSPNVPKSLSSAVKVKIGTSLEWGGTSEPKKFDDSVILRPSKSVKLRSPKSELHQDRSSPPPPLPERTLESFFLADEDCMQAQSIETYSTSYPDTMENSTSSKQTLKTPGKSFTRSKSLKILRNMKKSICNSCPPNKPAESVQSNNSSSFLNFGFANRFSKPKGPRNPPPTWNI

Sequence of Tyrosine-protein phosphatase non-receptor type 11 (Q06124 whole entry): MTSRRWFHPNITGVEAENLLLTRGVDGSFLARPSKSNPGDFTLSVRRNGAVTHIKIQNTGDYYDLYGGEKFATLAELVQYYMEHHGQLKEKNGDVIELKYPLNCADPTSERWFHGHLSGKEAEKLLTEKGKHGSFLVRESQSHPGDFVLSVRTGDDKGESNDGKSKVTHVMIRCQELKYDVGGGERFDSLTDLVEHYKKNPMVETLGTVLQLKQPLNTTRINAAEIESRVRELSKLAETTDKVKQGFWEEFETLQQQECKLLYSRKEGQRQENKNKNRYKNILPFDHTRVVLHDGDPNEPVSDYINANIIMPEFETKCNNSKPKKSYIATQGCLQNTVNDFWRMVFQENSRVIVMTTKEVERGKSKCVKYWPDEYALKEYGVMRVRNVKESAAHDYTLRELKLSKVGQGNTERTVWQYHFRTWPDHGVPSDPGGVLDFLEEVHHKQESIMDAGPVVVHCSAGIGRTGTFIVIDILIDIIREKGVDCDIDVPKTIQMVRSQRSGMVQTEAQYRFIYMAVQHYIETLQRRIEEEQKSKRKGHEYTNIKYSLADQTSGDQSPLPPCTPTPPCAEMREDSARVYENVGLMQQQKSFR
Sequence of Broad substrate specificity ATP-binding cassette transporter ABCG2 (Q9UNQ0 whole entry): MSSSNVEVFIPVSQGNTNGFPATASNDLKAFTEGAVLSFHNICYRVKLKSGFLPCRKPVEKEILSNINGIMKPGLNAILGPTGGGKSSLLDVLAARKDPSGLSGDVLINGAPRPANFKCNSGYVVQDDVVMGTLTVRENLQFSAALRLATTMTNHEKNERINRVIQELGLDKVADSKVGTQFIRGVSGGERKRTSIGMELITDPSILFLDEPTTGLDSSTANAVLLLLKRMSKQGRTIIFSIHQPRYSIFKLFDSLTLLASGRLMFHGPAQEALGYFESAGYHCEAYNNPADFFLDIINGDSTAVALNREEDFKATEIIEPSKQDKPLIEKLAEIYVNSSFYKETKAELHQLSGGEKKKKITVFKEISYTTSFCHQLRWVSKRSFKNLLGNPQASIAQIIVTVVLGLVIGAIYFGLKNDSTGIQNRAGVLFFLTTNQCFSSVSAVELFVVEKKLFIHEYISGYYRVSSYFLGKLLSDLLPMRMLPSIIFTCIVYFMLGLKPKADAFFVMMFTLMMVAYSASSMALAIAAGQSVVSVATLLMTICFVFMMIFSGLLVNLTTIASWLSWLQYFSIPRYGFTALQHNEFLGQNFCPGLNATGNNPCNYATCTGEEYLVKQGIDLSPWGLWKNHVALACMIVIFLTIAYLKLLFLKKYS
Sequence of Tyrosine-protein phosphatase non-receptor type 5 (P54829 whole entry): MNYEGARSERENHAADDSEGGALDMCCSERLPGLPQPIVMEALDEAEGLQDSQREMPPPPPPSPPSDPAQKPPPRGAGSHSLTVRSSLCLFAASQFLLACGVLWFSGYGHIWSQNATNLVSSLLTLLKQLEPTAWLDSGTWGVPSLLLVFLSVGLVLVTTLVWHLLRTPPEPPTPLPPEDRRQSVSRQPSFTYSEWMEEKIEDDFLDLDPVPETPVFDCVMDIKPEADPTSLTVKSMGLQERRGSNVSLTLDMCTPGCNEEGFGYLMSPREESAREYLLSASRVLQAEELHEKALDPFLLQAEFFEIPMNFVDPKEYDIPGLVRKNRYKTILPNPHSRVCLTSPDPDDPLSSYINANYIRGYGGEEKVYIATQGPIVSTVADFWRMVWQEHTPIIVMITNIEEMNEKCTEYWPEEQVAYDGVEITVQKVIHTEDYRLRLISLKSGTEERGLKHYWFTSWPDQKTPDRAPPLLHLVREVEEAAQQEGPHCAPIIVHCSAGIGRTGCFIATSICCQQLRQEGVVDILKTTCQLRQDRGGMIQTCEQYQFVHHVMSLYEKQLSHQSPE
Sequence of Dual specificity protein phosphatase 3 (P51452 whole entry): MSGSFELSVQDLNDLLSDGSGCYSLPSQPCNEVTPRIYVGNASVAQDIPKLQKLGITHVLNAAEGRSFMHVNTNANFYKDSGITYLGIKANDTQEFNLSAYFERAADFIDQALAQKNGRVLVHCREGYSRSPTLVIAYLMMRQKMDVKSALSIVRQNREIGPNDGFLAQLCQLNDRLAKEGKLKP
Sequence of DNA repair protein RAD52 homolog (P43351 whole entry): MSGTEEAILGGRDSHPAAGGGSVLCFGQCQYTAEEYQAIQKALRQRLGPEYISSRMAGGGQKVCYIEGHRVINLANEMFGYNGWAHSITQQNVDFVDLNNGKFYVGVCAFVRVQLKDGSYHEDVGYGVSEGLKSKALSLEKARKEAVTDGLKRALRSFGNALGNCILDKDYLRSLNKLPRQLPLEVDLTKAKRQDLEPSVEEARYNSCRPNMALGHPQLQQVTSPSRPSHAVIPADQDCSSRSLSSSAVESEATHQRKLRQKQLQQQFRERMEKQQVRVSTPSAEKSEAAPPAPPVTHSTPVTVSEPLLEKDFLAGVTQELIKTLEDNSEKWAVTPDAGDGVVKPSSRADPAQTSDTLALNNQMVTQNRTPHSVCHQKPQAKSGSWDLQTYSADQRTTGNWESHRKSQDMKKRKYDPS
Sequence of Galanin receptor type 3 (O60755 whole entry): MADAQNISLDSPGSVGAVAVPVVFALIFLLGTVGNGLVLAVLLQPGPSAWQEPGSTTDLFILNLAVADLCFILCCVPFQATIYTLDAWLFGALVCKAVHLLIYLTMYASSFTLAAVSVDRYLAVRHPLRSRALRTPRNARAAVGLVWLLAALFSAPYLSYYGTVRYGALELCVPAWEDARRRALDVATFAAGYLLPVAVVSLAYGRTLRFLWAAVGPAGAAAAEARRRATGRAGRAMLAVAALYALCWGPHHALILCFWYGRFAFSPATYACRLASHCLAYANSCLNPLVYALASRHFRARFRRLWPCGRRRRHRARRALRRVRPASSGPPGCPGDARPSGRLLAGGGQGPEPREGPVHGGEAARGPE

CCn1cc(C(=O)NC2CCCc3c2cnn3-c2cccc(C)c2C)cn1 (stereo not drawn)
IC50 [1]: > 80 µM (inactive)
IC50 [2]: 0.874 µM (active)
EC50 [3]: > 29.9 µM (inactive)

COc1ccc2c(c1OC)c(=O)n1c3ccc(OC(C)C(=O)NCCN4CCOCC4)cc3c3ccnc2c31 (stereo not drawn)
IC50 [4]: 21.3 µM (active)
AC50 [5]: 4.31 µM (active)

Cc1ccc(-c2nc(C(Cl)Cl)c3ccccc3n2)cc1
IC50 [6]: 0.373 µM (active)
AC50 [7]: 1.1 µM (active)
AC50 [8]: 4.53 µM (active)
AC50 [9]: 20 µM (active)
AC50 [10]: 10.1 µM (active)

CCOc1ccccc1NC(=O)C(OC(=O)c1ccc(N(C)C)cc1)c1ccccc1 (stereo not drawn)
EC50 [11]: 2.75 µM (active)

CCOc1ccc2nc(NN=C3C(=O)NC(=S)NC3=O)sc2c1
IC50 [12]: 13.9 µM (active)

Cc1ccc(C(=O)Nc2ncc(Cc3ccccc3)s2)o1
AC50 [7]: 0.319 µM (active)
AC50 [13]: 12 µM (active)

Cc1ccc(S(=O)(=O)N2[C@@H](c3ccc(Br)cc3)C(C(=O)O)=CC[C@H]2c2ccc(Cl)cc2)cc1
EC50 [14]: > 29.9 µM (inactive)
IC50 [15]: 1.62 µM (active)
IC50 [16]: 17.5 µM (inactive)
EC50 [17]: 13.1 µM (inactive)

O=C(O)Cc1cccc(O)c(=O)c1C(=O)O
IC50 [18]: 3.9 µM (active)
IC50 [19]: 0.376 µM (active)
IC50 [20]: 11.6 µM (active)
IC50 [21]: 0.544 µM (active)
IC50 [22]: 8.34 µM (active)
